We go through 25 compounds from US20070213339A1 (Bayer Pharmaceuticals Corporation, priority 2004, published 2007).

Where only a bound is given, the exact number is not on record here.

The test system of the assay is Colo205 human colon carcinoma cell line. In words: In vitro tumor cell proliferation assay (MTS, CellTiter 96 Aqueous One Solution). The class given is cell-based. The following applies: COLO 205, Colo205 cells, 72 hours compound exposure, MTS absorbance at 490 nm, read-out: IC50 (concentration of test compound required to inhibit proliferation of 50% of the cells). In outline: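 Colo205 cells seeded at 2000 cells/well in RPMI-1640 with 10% serum, exposed to compound for 72 h at 37 °C, 5% CO2, in a 5-point dose-response up to 10-20 μM. Viability read by MTS absorbance at 490 nm; IC50 from background-corrected percent inhibition by linear regression.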
With `O=C(O)c1cn(-c2ccc(CNC3CC3)cc2)c2c(Cl)c(N3CCN(c4ccccn4)CC3)c(F)cc2c1=O` [Example 59, 8-chloro-1-{4-[(cyclopropylamino)-methyl]phenyl}-6-fluoro-4-oxo-7-(4-pyridin-2-ylpiperazin-1-yl)-1,4-dihydroquinoline-3-carboxylic acid], the IC50 is under 500 nM.

`CC(C)N(Cc1ccc(-n2cc(C(=O)O)c(=O)c3cc(F)c(N4CCN(c5ccccn5)CC4)c(Cl)c32)cc1)C1CCCCC1` [Example 174, 8-chloro-1-{4-[(2-cyclohexyl-isopropyl-amino)-methyl]-phenyl}-6-fluoro-4-oxo-7-(4-pyridin-2-yl-piperazine-1-yl)-1,4-dihydro-quinoline-3-carboxylic acid]: the IC50 was under 500 nM.

As for `COc1c(N2CCN(c3ccc(Cl)c(Cl)c3)CC2)c(F)cc2c(=O)c(C(=O)O)cn(-c3ccc(CN4CCCC4)cc3)c12` [Example 86, 7-[4-(3,4-dichlorophenyl)piperazin-1-yl]-6-fluoro-8-methoxy-4-oxo-1-[4-(pyrrolidin-1-ylmethyl)phenyl]-1,4-dihydroquinoline-3-carboxylic acid], the IC50 lay in the range of 500 to 2000 nM.

As for `CN(C)Cc1ccc(-n2cc(C(=O)O)c(=O)c3cc(F)c(N4CCN(c5ccc(F)cc5)CC4)c(OC(F)(F)F)c32)cc1` [Example 131, 1-{4-[(dimethylamino)methyl]phenyl}-6-fluoro-7-[4-(4-fluorophenyl)piperazin-1-yl]-4-oxo-8-(trifluoromethoxy)-1,4-dihydroquinoline-3-carboxylic acid], the IC50 is under 500 nM.

As for `N#Cc1ccccc1N1CCN(c2c(F)cc3c(=O)c(C(=O)O)cn(-c4ccc(CN5CCCC5)c(F)c4)c3c2Cl)CC1` [Example 185, 8-chloro-7-[4-(2-cyanophenyl)-piperazine-1-yl]-6-fluoro-1-(3-fluoro-4-pyrrolidin-1-ylmethyl-phenyl)-4-oxo-1,4-dihydroquinoline-3-carboxylic acid], the IC50 is under 500 nM.

As to `COc1cc(CN2CCCC2)ccc1-n1cc(C(=O)O)c(=O)c2cc(F)c(N3CCN(c4ccc(F)cc4)CC3)c(Cl)c21` [Example 176, 8-chloro-6-fluoro-7-[4-(4-fluorophenyl)-piperazine-1-yl]-1-(2-methoxy-4-pyrrolidin-1-ylmethyl-phenyl)-4-oxo-1,4-dihydroquinoline-3-carboxylic acid], the IC50 is under 500 nM.

In the case of `CCN(CC)Cc1ccc(-n2cc(C(=O)O)c(=O)c3cc(F)c(N4CCN(c5ccccc5C#N)CC4)c(OC)c32)cc1` [Example 117, 7-[4-(2-cyanophenyl)piperazin-1-yl]-1-{4-[(diethylamino)methyl]phenyl}-6-fluoro-8-methoxy-4-oxo-1,4-dihydroquinoline-3-carboxylic acid], the IC50 was under 500 nM.

For `O=C(O)c1cn(-c2ccc(CNC3CC3)cc2)c2c(Cl)c(N3CCN(c4ncccn4)CC3)c(F)cc2c1=O` [Example 60, 8-chloro-1-{4-[(cyclopropylamino)methyl]-phenyl}-6-fluoro-4-oxo-7-(4-pyrimidin-2-ylpiperazin-1-yl)-1,4-dihydroquinoline-3-carboxylic acid], the IC50 is under 500 nM.

Turning to `COc1c(N2CCN(c3ccccc3F)CC2)c(F)cc2c(=O)c(C(=O)O)cn(-c3ccc(CN(C)C)cc3)c12` [Example 94, 1-{4-[(dimethylamino)methyl]phenyl}-6-fluoro-7-[4-(2-fluorophenyl)piperazin-1-yl]-8-methoxy-4-oxo-1,4-dihydroquinoline-3-carboxylic acid], the IC50 fell in the range of 500 to 2000 nM.

Turning to `Cc1ccc(N2CCN(c3c(F)cc4c(=O)c(C(=O)O)cn(-c5ccc(CN6CCCC6)cc5)c4c3OC(F)(F)Cl)CC2)cc1C` [Example 151, 8-[chloro(difluoro)methoxy]-7-[4-(3,4-dimethylphenyl)piperazin-1-yl]-6-fluoro-4-oxo-1-[4-(pyrrolidin-1-ylmethyl)phenyl]-1,4-dihydroquinoline-3-carboxylic acid], the IC50 was under 500 nM.

On to `CCN(CC)Cc1ccc(-n2cc(C(=O)O)c(=O)c3cc(F)c(N4CCN(c5ccccc5C#N)CC4)c(OC(F)(F)Cl)c32)cc1` [Example 162, 8-[chloro(difluoro)methoxy]-7-[4-(2-cyanophenyl)piperazin-1-yl]-1-{4-[(diethylamino)methyl]phenyl}-6-fluoro-4-oxo-1,4-dihydroquinoline-3-carboxylic acid], for which the IC50 is under 500 nM.

With `COc1ccccc1N1CCN(c2c(F)cc3c(=O)c(C(=O)O)cn(-c4ccc(CN5CCCC5)cc4)c3c2OC)CC1` [Example 83, 6-fluoro-8-methoxy-7-[4-(2-methoxyphenyl)-piperazin-1-yl]-4-oxo-1-[4-(pyrrolidin-1-ylmethyl)phenyl]-1,4-dihydroquinoline-3-carboxylic acid], the IC50 was in the range of 500 to 2000 nM.

For the compound `COC[C@H]1CCCN1Cc1ccc(-n2cc(C(=O)O)c(=O)c3cc(F)c(N4CCN(c5ccccn5)CC4)c(Cl)c32)cc1` [Example 21, 8-chloro-6-fluoro-1-(4-{[(2R)-2-(methoxy-methyl)pyrrolidin-1-yl]methyl}phenyl)-4-oxo-7-(4-pyridin-2-ylpiperazin-1-yl)-1,4-dihydroquinoline-3-carboxylic acid], the IC50 is under 500 nM.

With `CN(C)Cc1ccc(-n2cc(C(=O)O)c(=O)c3cc(F)c(N4CCN(c5ccc(Cl)cc5)CC4)c(OC(F)(F)Cl)c32)cc1` [Example 156, 8-[chloro(difluoro)methoxy]-7-[4-(4-chlorophenyl)piperazin-1-yl]-1-{4-[(dimethylamino)methyl]phenyl}-6-fluoro-4-oxo-1,4-dihydroquinoline-3-carboxylic acid], the IC50 is under 500 nM.

With `CCN(C)Cc1ccc(-n2cc(C(=O)O)c(=O)c3cc(F)c(N4CCN(c5ccc(Cl)cc5)CC4)c(OC(F)(F)Cl)c32)cc1` [Example 168, 8-[chloro(difluoro)methoxy]-7-[4-(4-chlorophenyl)piperazin-1-yl]-1-(4-{[ethyl(methyl)amino]methyl}phenyl)-6-fluoro-4-oxo-1,4-dihydroquinoline-3-carboxylic acid], the IC50 was under 500 nM.

Consider `CN(Cc1ccc(-n2cc(C(=O)O)c(=O)c3cc(F)c(N4CCN(c5ncccn5)CC4)c(Cl)c32)cc1)C1CCCCC1` [Example 62, 8-chloro-1-(4-{[cyclohexyl(methyl)amino]-methyl}phenyl)-6-fluoro-4-oxo-7-(4-pyrimidin-2-ylpiperazin-1-yl)-1,4-dihydroquinoline-3-carboxylic acid], for which the IC50 is under 500 nM.

As to `N#Cc1cccnc1N1CCN(c2c(F)cc3c(=O)c(C(=O)O)cn(-c4ccc(CN5CCCC5)cc4)c3c2OC(F)(F)Cl)CC1` [Example 149, 8-[chloro(difluoro)methoxy]-7-[4-(3-cyanopyridin-2-yl)piperazin-1-yl]-6-fluoro-4-oxo-1-[4-(pyrrolidin-1-ylmethyl)-phenyl]-1,4-dihydroquinoline-3-carboxylic acid], the IC50 is under 500 nM.

Take `O=C(O)c1cn(-c2ccc(CNC3CCCC3)cc2)c2c(Cl)c(N3CCN(c4ccccn4)CC3)c(F)cc2c1=O` [Example 56, 8-chloro-1-{4-[(cyclopentylamino)-methyl]phenyl}-6-fluoro-4-oxo-7-(4-pyridin-2-ylpiperazin-1-yl)-1,4-dihydroquinoline-3-carboxylic acid]: the IC50 is under 500 nM.

Consider `N#Cc1cccnc1N1CCN(c2c(F)cc3c(=O)c(C(=O)O)cn(-c4ccc(CN5CCCC5)c(F)c4)c3c2Cl)CC1` [Example 184, 8-chloro-7-[4-(3-cyanopyridin-2-yl)-piperazine-1-yl]-6-fluoro-1-(3-fluoro-4-pyrrolidin-1-ylmethyl-phenyl)-4-oxo-1,4-dihydroquinoline-3-carboxylic acid], for which the IC50 is under 500 nM.

Regarding `COc1c(N2CCN(c3ncccn3)CC2)c(F)cc2c(=O)c(C(=O)O)cn(-c3ccc(CN4CCCC4)cc3)c12` [Example 73, 6-fluoro-8-methoxy-4-oxo-7-(4-pyrimidin-2-ylpiperazin-1-yl)-1-[4-(pyrrolidin-1-ylmethyl)phenyl]-1,4-dihydroquinoline-3-carboxylic acid], the IC50 was under 500 nM.

With `O=C(O)c1cn(-c2ccc(CNC3CCCC3)cc2)c2c(Cl)c(N3CCN(c4ncccn4)CC3)c(F)cc2c1=O` [Example 57, 8-chloro-1-{4-[(cyclopentylamino)methyl]-phenyl}-6-fluoro-4-oxo-7-(4-pyrimidin-2-ylpiperazin-1-yl)-1,4-dihydroquinoline-3-carboxylic acid], the IC50 is under 500 nM.

Consider `COc1c(N2CCN(c3ccccc3[N+](=O)[O-])CC2)c(F)cc2c(=O)c(C(=O)O)cn(-c3ccc(CN(C)C)cc3)c12` [Example 104, 1-{4-[(dimethylamino)methyl]phenyl}-6-fluoro-8-methoxy-7-[4-(2-nitrophenyl)piperazin-1-yl]-4-oxo-1,4-dihydroquinoline-3-carboxylic acid], for which the IC50 fell in the range of 2000 to 20000 nM.

As to `COc1c(N2CCN(c3ccc(C(F)(F)F)cc3)CC2)c(F)cc2c(=O)c(C(=O)O)cn(-c3ccc(CN4CCCC4)cc3)c12` [Example 82], the IC50 was in the range of 2000 to 20000 nM.

As to `COc1cc(CN2CCCCC2)ccc1-n1cc(C(=O)O)c(=O)c2cc(F)c(N3CCN(c4ccc(F)cc4)CC3)c(Cl)c21` [Example 177, 8-chloro-6-fluoro-7-[4-(4-fluorophenyl)-piperazine-1-yl]-1-(2-methoxy-4-piperidine-1-ylmethyl-phenyl)-4-oxo-1,4-dihydroquinoline-3-carboxylic acid], the IC50 was under 500 nM.

With `N#Cc1ccccc1N1CCN(c2c(F)cc3c(=O)c(C(=O)O)cn(-c4ccc(CN5CCCC5)cc4F)c3c2Cl)CC1` [Example 39, 8-chloro-7-[4-(2-cyanophenyl)piperazin-1-yl]-6-fluoro-1-[2-fluoro-4-(pyrrolidin-1-ylmethyl)phenyl]-4-oxo-1,4-dihydroquinoline-3-carboxylic acid], the IC50 was under 500 nM.
